According to patent US20250051263A1, “NOVEL IONIZABLE LIPIDS AND LIPID NANOPARTICLES AND METHODS OF USING THE SAME” (Sail Biomedicines, Inc., priority 2021, published 2025):

Columns and labels:
[1] = TNS (pKa) assay, apparent LNP pKa; assay type: physicochemical; settings: for pKa (TNS): Example 5 LNP lipid:DOPE:Plant Cholesterol:DMPE-PEG2k 35:16:46.5:2.5, FLUC/EPO 1:1 mRNA, N:P 6:1
Experimental: (protocol adapted from: A Novel Amino Lipid Series for mRNA Delivery: Improved Endosomal Escape and Sustained Pharmacology and Safety in Non-human Primates, Sabnis, Staci et al., Molecular Therapy, Volume 26, Issue 6, 1509-1519) 20 buffers (10 mM sodium phosphate, 10 mM sodium borate, 10 mM sodium citrate, and 150 mM sodium chloride, in Distilled Water) of unique pH values ranging from 3.0-12.0 were prepared using 1M sodium hydroxide and 1M hydrochloric acid. 3.25 uL of LNPs (0.04 mg/mL mRNA, in PBS) were incubated with 2 μL of TNS reagent (0.3 mM, in DMSO) and 90 μL of buffer for each pH value (described above) in a 96-well black-walled plate. Each pH condition was performed in triplicate wells. The TNS fluorescence was measured using a Biotek Cytation Plate reader at excitation/emission wavelengths of 321/445 nm. The fluorescence values were then plotted and fit using a 4-parameter sigmoid curve. From the fit, the pH value yielding the half-maximal fluorescence was calculated and reported as the apparent LNP pKa value.
For pKa measurement, a […] assay was conducted according to those described in Sabnis et al., Molecular Therapy, 26(6):1509-19), which is incorporated herein by reference in its entirety. Briefly, 20 buffers (10 mM sodium phosphate, 10 mM sodium borate, 10 mM sodium citrate, and 150 mM sodium chloride, in distilled Water) of unique pH values ranging from 3.0-12.0 were prepared using 1M sodium hydroxide and 1M hydrochloric acid. 3.25 μL of a LNP composition (0.04 mg/mL mRNA, in PBS) was incubated with 2 μL of TNS reagent (0.3 mM, in DMSO) and 90 μL of buffer for each pH value (described above) in a 96-well black-walled plate. Each pH condition was performed in triplicate wells. The TNS fluorescence was measured using a Biotek Cytation Plate reader at excitation/emission wavelengths of 321/445 nm. The fluorescence values were then plotted and fit using a 4-parameter sigmoid curve. From the fit, the pH value yielding the half-maximal fluorescence was calculated and reported as the apparent LNP pKa value.

[2] = test system: Balb/c mice; assay: In-vivo bioluminescent imaging after IV injection of Fluc mRNA LNP; settings: for Bioluminescence (IV) Liver / Bioluminescence (IV) Lung / Bioluminescence (IV) Spleen / Bioluminescence (IV) Whole Body / Spleen: Liver Ratio: Example 5 LNP (DOPE 35:16:46.5:2.5), 5 μg FLUC + 5 μg EPO; for Bioluminescence (IV) Liver / Bioluminescence (IV) Lung / Bioluminescence (IV) Spleen / Bioluminescence (IV) Whole Body / Bioluminescence Liver / Bioluminescence Lung / Bioluminescence Spleen: 4-6 hours post-dose; for Bioluminescence (IV) Liver / Bioluminescence (IV) Lung / Bioluminescence (IV) Spleen / Bioluminescence (IV) Whole Body / Spleen: Liver Ratio / Bioluminescence Liver / Bioluminescence Lung / Bioluminescence Spleen: IV; for Spleen: Liver Ratio: ratio of bioluminescence; for Bioluminescence Liver / Bioluminescence Lung / Bioluminescence Spleen: 5 ug Fluc+5 ug EPO mRNA; for bioluminescence in the liver, spleen, and lung: used as part of an ionizable lipid scaffold (LNP), Table 1
Experimental: 8-9 week old female Balb/c mice are utilized for bioluminescence-based ionizable lipid screening efforts. Mice are obtained from Jackson Laboratories (JAX Stock: 000651) and allowed to acclimate for one week prior to manipulations. Animals are placed under a heat lamp for a few minutes before introducing them to a restraining chamber. The tail is wiped with alcohol pads (Fisher Scientific) and 100 μL of a lipid nanoparticle composition descrbed above containing 10 ug total mRNA (5 ug Fluc+5 ug EPO) is injected intravenously using a 29 G insulin syringe (Covidien). Any resulting bleeding is stemmed using a sterile gauze pad (Fisher Scientific) and animals are placed back into their home cage. 4-6 hours post-dose, animals are injected with 200 μL of 15 mg/mL D-Luciferin (GoldBio) and placed in an isoflurane induction chamber set to deliver 2.5% isoflurane delivered at an oxygen flow rate of 1-2 liters per min. After 5 minutes of isoflurane exposure, mice are placed in set nose cones inside the IVIS Lumina LT imager (PerkinElmer). LivingImage software is utilized for imaging. Whole body bio-luminescence is captured at auto-exposure after which animals are removed from the IVIS and placed into a CO2 chamber for euthanasia. Cardiac puncture is performed on each animal after placing it in dorsal recumbency, and blood collection is performed using a 25 G insulin syringe (BD). Blood is collected in Lithium-Heparin coated tubes (Fisher Scientific) and immediately placed on ice. Once all blood samples are collected, tubes are spun at 2000 G for 10 minutes using a tabletop centrifuge and plasma is aliquoted into individual Eppendorf tubes (Fisher Scientific) and stored at −80 C for subsequent EPO quantification. EPO levels in plasma are determined using EPO MSD kit (Meso Scale Diagnostics).
8-9 week old female Balb/c mice were utilized for bioluminescence-based ionizable lipid screening efforts. Mice were obtained from Jackson Laboratories (JAX Stock: 000651) and allowed to acclimate for one week prior to manipulations. Animals were placed under a heat lamp for a few minutes before introducing them to a restraining chamber. The tail was wiped with alcohol pads (Fisher Scientific) and, for each LNP composition descrbed above, 100 μL of a lipid nanoparticle composition descrbed above containing 10 μg total mRNA (5 μg Fluc+5 μg EPO, 5 μg Fluc+5 μg Cre, or 5 μg EGFP) was injected intravenously using a 29 G insulin syringe (Covidien).
4-6 hours post-dose, animals were injected with 200 μL of 15 mg/mL D-Luciferin (GoldBio), and placed in set nose cones inside the IVIS Lumina LT imager (PerkinElmer). LivingImage software was utilized for imaging. Whole body bio-luminescence was captured at auto-exposure after which animals are removed from the IVIS and placed into a CO2 chamber for euthanasia. Cardiac puncture was performed on each animal after placing it in dorsal recumbency, and blood collection was performed using a 25 G insulin syringe (BD). Once all blood samples were collected, tubes are spun at 2000 G for 10 minutes using a tabletop centrifuge and plasma was aliquoted into individual Eppendorf tubes (Fisher Scientific) and stored at −80° C. for subsequent EPO quantification. EPO levels in plasma were determined using EPO MSD kit (Meso Scale Diagnostics).

[3] = LNP lipid:DSPC:Plant Chol.:DMPE-PEG2k 50:10:38.5:1.5
[4] = LNP lipid:DOPE:Plant Chol.:DMPE-PEG2k 35:16:46.5:2.5 (Table 1)

SMILES	pKa (TNS) [1]	Bioluminescence (IV) Liver [2]	Bioluminescence (IV) Lung [2]	Bioluminescence (IV) Spleen [2]	Bioluminescence (IV) Whole Body [2]	Spleen: Liver Ratio [2]	Bioluminescence Liver [2, 3]	Bioluminescence Lung [2, 3]	Bioluminescence Spleen [2, 3]	bioluminescence in the liver, spleen, and lung [2]	pKa ([1]; LNP ionizable lipid:DOPE:Plant Chol.:DMPE-PEG2k 35:16:46.5:2.5 (Table 1))	pKa ([1]; LNP ionizable lipid:DSPC:Plant Chol.:DMPE-PEG2k 50:10:38.5:1.5)	Bioluminescence Liver [2, 4]	Bioluminescence Lung [2, 4]	Bioluminescence Spleen [2, 4]
CCCCCCCCCOC(=O)CCCCCCCN(CCCCCCCC(=O)OC(CCCCCCCC)CCCCCCCC)CCNC(=O)CCC(=O)NCCN(CCCCCCCC(=O)OCCCCCCCCC)CCCCCCCC(=O)OC(CCCCCCCC)CCCCCCCC [Compound 2213, nonyl 8-[2-[[4-[2-[(8-nonoxy-8-oxo-octyl)-[8-(1-octylnonoxy)-8-oxo-octyl]amino]ethylamino]-4-oxo-butanoyl]amino]ethyl-[8-(1-octylnonoxy)-8-oxo-octyl]amino]octanoate]	6.54	2.2E+06	3.7E+03	3.5E+05	1.0E+07	0.215	–	–	–	–	–	–	–	–	–
CCCCCCCCCCCOC(=O)CCCCCN(CCCCCCCC(=O)OC(CCCCCCCC)CCCCCCCC)CCOC(=O)OCCN(CCCCCCCC(=O)OC(CCCCCCCC)CCCCCCCC)CCCCCC(=O)OCCCCCCCCCCC [Compound 2218, 1-octylnonyl 8-[2-[2-[[8-(1-octylnonoxy)-8-oxo-octyl]-(6-oxo-6-undecoxy-hexyl)amino]ethoxycarbonyloxy]ethyl-(6-oxo-6-undecoxy-hexyl)amino]octanoate]	4.34	1.9E+03	7.9E+02	1.8E+03	4.1E+03	1.019	1.16E+03	7.20E+02	8.14E+03	improved bioluminescence	–	–	–	–	–
CCCCCCCCCCCOC(=O)CCCCCN(CCCCCCCC(=O)OC(CCCCCCCC)CCCCCCCC)CCNC(=O)CC(=O)NCCN(CCCCCCCC(=O)OC(CCCCCCCC)CCCCCCCC)CCCCCC(=O)OCCCCCCCCCCC [Compound 2220, 1-octylnonyl 8-[2-[[3-[2-[[8-(1-octylnonoxy)-8-oxo-octyl]-(6-oxo-6-undecoxy-hexyl)amino]ethylamino]-3-oxo-propanoyl]amino]ethyl-(6-oxo-6-undecoxy-hexyl)amino]octanoate]	6.02	1.1E+07	1.8E+03	7.5E+04	4.3E+07	0.004	1.03E+07	7.79E+03	2.09E+06	improved bioluminescence	–	–	–	–	–
CCCCCCCCCCCOC(=O)CCCCCN(CCCCCCCC(=O)OC(CCCCCCCC)CCCCCCCC)CCNC(=O)NCCN(CCCCCCCC(=O)OC(CCCCCCCC)CCCCCCCC)CCCCCC(=O)OCCCCCCCCCCC [Compound 2246, 1-octylnonyl8-[2-[2-[[8-(1-octylnonoxy)-8-oxo-octyl]-(6-oxo-6-undecoxy-hexyl)amino]ethylcarbamoylamino]ethyl-(6-oxo-6-undecoxy-hexyl)amino]octanoate]	6.63	1.8E+07	3.7E+03	1.3E+05	1.3E+08	0.007	–	–	–	–	–	–	–	–	–
CCCCCCCCCCCOC(=O)CCCCCN(CCCCCCCC(=O)OC(CCCCCCCC)CCCCCCCC)CCN1CCN(CCN(CCCCCCCC(=O)OC(CCCCCCCC)CCCCCCCC)CCCCCC(=O)OCCCCCCCCCCC)CC1 [Compound 2248, 1-octylnonyl 8-[2-[4-[2-[[8-(1-octylnonoxy)-8-oxo-octyl]-(6-oxo-6-undecoxy-hexyl)amino]ethyl]piperazin-1-yl]ethyl-(6-oxo-6-undecoxy-hexyl)amino]octanoate]	6.1	5.6E+07	2.7E+04	4.5E+05	3.5E+08	0.008	–	–	–	–	–	–	–	–	–
CCCCCCCCCCCOC(=O)CCCCCN(CCCCCCCC(=O)OC(CCCCCCCC)CCCCCCCC)CCNC(=O)/C=C/C(=O)NCCN(CCCCCCCC(=O)OC(CCCCCCCC)CCCCCCCC)CCCCCC(=O)OCCCCCCCCCCC [Compound 2252, 1-octylnonyl 8-[2-[[(E)-4-[2-[[8-(1-octylnonoxy)-8-oxo-octyl]-(6-oxo-6-undecoxy-hexyl)amino]ethylamino]-4-oxo-but-2enoyl]amino]ethyl-(6-oxo-6-undecoxy-hexyl)amino]octanoate]	6.06	1.5E+07	3.3E+03	2.3E+05	7.2E+07	0.015	2.41E+05	1.03E+04	4.69E+05	improved bioluminescence	6.06	5.49	1.52E+07	3.27E+03	2.32E+05
